Laboratory results from PubChem BioAssay (NCI).
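Step 1: Grow cells in 96-well plates. Step 2: Expose to compound for 48 hours at 5 concentrations. Step 3: Interpolate endpoints linearly; if unreached, use highest concentration. Here, GI50 denotes the concentration required for 50% inhibition of growth. TGI denotes the concentration required for complete inhibition of growth.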

Key:
Assay in all cases: NCI anticancer screen, dose series, 48 h
[1] = test system: UO-31 renal
[2] = test system: HCC-2998 colon
[3] = test system: K-562 leukemia
[4] = test system: SK-OV-3 ovarian
[5] = test system: T-47D breast
[6] = test system: SK-MEL-5 melanoma
[7] = test system: HCT-15 colon
[8] = test system: HOP-62 NSCLC
[9] = test system: RXF 393 renal
[10] = test system: SK-MEL-2 melanoma
[11] = test system: SF-268 CNS
[12] = test system: MDA-MB-435
[13] = test system: HCT-116 colon
[14] = test system: OVCAR-4 ovarian
[15] = test system: SNB-75 CNS
[16] = test system: SF-295 CNS
[17] = test system: U251 CNS
[18] = test system: 786-0 renal
[19] = test system: NCI-H226 lung
[20] = test system: NCI-H23 lung
[21] = test system: UACC-62 melanoma
[22] = test system: MOLT-4 leukemia
[23] = test system: SK-MEL-28 melanoma
[24] = test system: NCI-H460 lung
[25] = test system: TK-10 renal
[26] = test system: SW-620 colon
[27] = test system: SN12C renal
[28] = test system: ACHN renal
[29] = test system: OVCAR-5 ovarian
[30] = test system: BT-549 breast
[31] = test system: HT29 colon
[32] = test system: HS 578T breast
[33] = test system: SR leukemia
[34] = test system: COLO 205 colon
[35] = test system: DU-145 prostate
[36] = test system: LOX IMVI melanoma
[37] = test system: HL-60(TB) leukemia
[38] = test system: SF-539 CNS
[39] = test system: PC-3 prostate
[40] = test system: NCI/ADR-RES ovarian
[41] = test system: A498 renal
[42] = test system: OVCAR-8 ovarian
[43] = test system: MCF7 breast
[44] = test system: NCI-H522 lung
[45] = test system: EKVX NSCLC
[46] = test system: KM12 colon
[47] = test system: CAKI-1 renal
[48] = test system: UACC-257 melanoma
[49] = test system: MALME-3M melanoma
[50] = test system: HOP-92 NSCLC
[51] = test system: CCRF-CEM leukemia
[52] = test system: SNB-19 CNS
[53] = test system: M14 melanoma
[54] = test system: OVCAR-3 ovarian
[55] = test system: A549 NSCLC

## C=C(C[C@](O)(C(=O)/C=C/c1ccc(Cl)cc1)C(=O)OC)c1ccccc1
[1]
  GI50: 1560 nM
  TGI: 3.2 µM
[2]
  GI50: 1840 nM
  TGI: 3.42 µM
[3]
  GI50: 2120 nM
  TGI: 8.8 µM
[4]
  GI50: 11.1 µM
  TGI: 23.1 µM
[5]
  GI50: 1290 nM
  TGI: 3.65 µM
[6]
  GI50: 4.11 µM
  TGI: 14.6 µM
[7]
  GI50: 1450 nM
  TGI: 3.52 µM
[8]
  GI50: 2720 nM
  TGI: 9.03 µM
[9]
  GI50: 1660 nM
  TGI: 3.31 µM
[10]
  GI50: 13.3 µM
  TGI: 27.1 µM
[11]
  GI50: 2550 nM
  TGI: 8.13 µM
[12]
  GI50: 1950 nM
  TGI: 4.84 µM
[13]
  GI50: 1920 nM
  TGI: 3.96 µM
[14]
  GI50: 3.07 µM
  TGI: 15.6 µM
[15]
  GI50: 8.43 µM
  TGI: 21.8 µM
[16]
  GI50: 7.96 µM
  TGI: 20.7 µM
[17]
  GI50: 1850 nM
  TGI: 3.74 µM
[18]
  GI50: 1660 nM
  TGI: 3.24 µM
[19]
  GI50: 3.48 µM
  TGI: 16.3 µM
[20]
  GI50: 2820 nM
  TGI: 11.9 µM
[21]
  GI50: 2030 nM
  TGI: 4.58 µM
[22]
  GI50: 2590 nM
  TGI: 8.35 µM
[23]
  GI50: 2040 nM
  TGI: 4.98 µM
[24]
  GI50: 2440 nM
  TGI: 6.31 µM
[25]
  GI50: 2330 nM
  TGI: 6.21 µM
[26]
  GI50: 2050 nM
  TGI: 5.04 µM
[27]
  GI50: 2410 nM
  TGI: 6.1 µM
[28]
  GI50: 2170 nM
  TGI: 5.2 µM
[29]
  GI50: 3.48 µM
  TGI: 13.1 µM
[30]
  GI50: 2860 nM
  TGI: 10.7 µM
[31]
  GI50: 1900 nM
  TGI: 4.65 µM
[32]
  GI50: 4.11 µM
  TGI: 34.6 µM
[33]
  GI50: 1590 nM
  TGI: 7.7 µM
[34]
  GI50: 2000 nM
  TGI: 4.36 µM
[35]
  GI50: 3.03 µM
  TGI: 10.7 µM
[36]
  GI50: 719 nM
  TGI: 2240 nM
[37]
  GI50: 2720 nM
  TGI: 7.83 µM
[38]
  GI50: 2120 nM
  TGI: 4.93 µM
[39]
  GI50: 2700 nM
  TGI: 9.04 µM
[40]
  GI50: 3.11 µM
  TGI: 17.1 µM
[41]
  GI50: 11.6 µM
  TGI: 23.8 µM
[42]
  GI50: 3.43 µM
  TGI: 12.8 µM
[43]
  GI50: 456 nM
  TGI: 4.38 µM
[44]
  GI50: 2250 nM
  TGI: 6.95 µM
[45]
  GI50: 4.16 µM
  TGI: 16.9 µM
[46]
  GI50: 1810 nM
  TGI: 4.24 µM
[47]
  GI50: 7 µM
  TGI: 20.7 µM
[48]
  GI50: 13.1 µM
  TGI: 25.8 µM
[49]
  GI50: 12.4 µM
  TGI: 26.5 µM
[50]
  GI50: 4.07 µM
  TGI: 15.5 µM
[51]
  GI50: 2860 nM
  TGI: 13 µM
[52]
  GI50: 3.69 µM
  TGI: 12.8 µM
[53]
  GI50: 2980 nM
  TGI: 11.3 µM
[54]
  GI50: 1560 nM
  TGI: 3.08 µM
[55]
  GI50: 6.63 µM
  TGI: 21.8 µM
